Reference: patent publication US20250130225A1, “SUBSTRATES FOR IMAGING GLUCOCEREBROSIDASE ACTIVITY” (SIMON FRASER UNIVERSITY, priority 2021, published 2025)

Tests used:
[1] = target: T1, GCase (Homo sapiens, UniProt P04062); experiment: GCase inhibition by AT3375 in live SK-N-SH cells read with substrate 1; format: cell-based; conditions: 10 μM AT3375 with 5 μM substrate 1, 2 h
T1 construct: High content imaging of SK-N-SH cells incubated for 2 h; endogenous in cells; host or cells: SK-N-SH
T1 sequence (P04062 40-536): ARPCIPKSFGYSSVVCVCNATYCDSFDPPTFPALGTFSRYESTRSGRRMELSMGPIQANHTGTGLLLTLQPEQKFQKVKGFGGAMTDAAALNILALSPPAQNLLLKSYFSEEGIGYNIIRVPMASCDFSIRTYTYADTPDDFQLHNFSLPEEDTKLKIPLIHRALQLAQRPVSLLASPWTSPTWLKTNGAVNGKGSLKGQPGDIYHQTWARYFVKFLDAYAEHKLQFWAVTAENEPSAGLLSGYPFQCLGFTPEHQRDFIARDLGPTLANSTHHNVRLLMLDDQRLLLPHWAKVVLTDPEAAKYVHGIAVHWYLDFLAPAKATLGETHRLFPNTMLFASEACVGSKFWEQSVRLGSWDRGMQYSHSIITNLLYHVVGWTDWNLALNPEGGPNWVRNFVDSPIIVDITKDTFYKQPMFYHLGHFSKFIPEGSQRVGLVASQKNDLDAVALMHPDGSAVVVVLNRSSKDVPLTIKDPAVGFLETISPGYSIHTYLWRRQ
Method: After incubation at 37° C. and 5% CO2 for 2 h, the media was removed and the cells were washed.
After incubation at 37° C. and 5% CO2 for 2 h, the media was removed, and the cells were washed. The plate was then imaged using a Molecular Devices ImageXpress XLS High-Content Imager. From the images, the total mean integrated intensity was measured for the FITC channel and divided by the number of cells within the imaging site as determined by the DAPI staining.

[2] = Fluorescence emission spectrum and quenching efficiency of substrate 1 versus BODIPY FL-acid; format: physicochemical
Method: Fluorescence emission spectra for substrate 1 and BODIPY® FL-acid: The emission spectra were obtained for substrate 1 and BODIPY® FL-acid in citrate-phosphate buffer (150 mM; pH 5.4) containing 1% DMSO and 0.25% taurodeoxycholate. Data were collected using a Molecular Devices plate reader ([…]). […] The excitation wavelength used was 485 nm and the emission wavelength was 513 nm.
Determination of the quenching efficiencies for substrate 1 using concentration dependent variation in the fluorescence emission of substrate 1 and its corresponding fluorophore BODIPY® FL-acid: The quenching efficiencies were determined by comparing the fluorescence emission standard curves of substrate 1 and comparing it to that of BODIPY® Fl-acid.

[3] = target: T2, purified recombinant GCase (Homo sapiens, UniProt P04062); experiment: In-vitro kinetic assay with purified recombinant GCase; format: biochemical; conditions: same kinetic assay, substrate 3 vs 9b
T2 construct: purchased R&D Systems
T2 sequence (P04062 40-536): T1 sequence (P04062 40-536)
Method: (§1) In-vitro kinetic assay for substrate 1. Continuous assays were performed at 30° C. in citrate-phosphate buffer (150 mM; pH 5.4) containing 0.25% taurodeoxycholate. The concentrations of substrate 1 used in assays were 0.39, 0.78, 1.56, 3.13 6.25, 12.5, 25 and 50 μM. Reactions were initiated by the addition of purified recombinant GCase (2.5 nM, R&D Systems) and the reaction was monitored continuously over 1200 seconds to determine the initial rate of change of fluorescence. Standard curves were constructed using BODIPY® Fl-acid using the same buffer conditions. […] Assays were carried out in triplicate.
as §1, with “Comparative In-vitro” for “In-vitro”, “substrate 3 and 9b.” for “substrate 1.”, “of substrates 3 and 9b” for “of substrate 1”, “were 0.156, 0.313, 0.625, 1.25, 2.5, 5, 10,” for “were 0.39, 0.78, 1.56, 3.13 6.25, 12.5, 25”, “and 20” for “and 50”, “using TAMRA and BODIPY-576” for “using BODIPY® Fl-acid”

O[C@H]1[C@H](O)CNC[C@@H]1C(F)F [AT3375, (3R,4R,5S)-5-(difluoromethyl)piperidine-3,4-diol]
effect on fluorescent signal from substrate 1 [1]: significant reduction of the punctuated fluorescent signal

COc1cc(/N=N/c2ccc(C)cc2[N+](=O)[O-])c(C)cc1/N=N/c1ccc(N(C)CCCC(=O)NCCCO[C@@H]2O[C@H](COCc3cn(CCCNC(=O)[C@H](CCCCN(C)C)NC(=O)CCC4=[N+]5C(=Cc6c(C)cc(C)n6[B-]5(F)F)C=C4)nn3)[C@@H](O)[C@H](O)[C@H]2O)cc1 [substrate 1, (S)-2-(3-(5,5-difluoro-7,9-dimethyl-dipyrrolo[1,2-c:2′,1′-f][1,3,2]diazaborinin-4-ium-5-uid-3-yl)propanamido)-6-(dimethylamino)-N-(3-(4-((((2R,3S,4S,5R,6R)-3,4,5-trihydroxy-6-(3-(4-((4-((E)-(2-methoxy-5-methyl-4-((E)-(4-methyl-2-nitrophenyl)diazenyl)phenyl)diazenyl)phenyl)(methyl)amino)butanamido)propoxy)tetrahydro-2H-pyran-2-yl)methoxy)methyl)-1H-1,2,3-triazol-1-yl)propyl)hexanamide]
fluorescence emission of intact substrate compared to free fluorophore BODIPY FL-acid ([2]; 6.25 μM, citrate-phosphate buffer 150 mM, pH 5.4, excitation 485 nm, emission 513 nm): strikingly little fluorescence | quenching efficiency ([2]; fluorescence emission standard curves compared to BODIPY Fl-acid): greater than 99.7%

COc1cc(/N=N/c2ccc([N+](=O)[O-])cc2)c(OC)cc1/N=N/c1ccc(N(C)CCCC(=O)NCCc2ccc(O[C@@H]3O[C@H](COCCCCn4cc(CNC(=O)[C@H](CCCCN(C)C)NC(=O)c5ccc(-c6c7ccc(=[N+](C)C)cc-7oc7cc(N(C)C)ccc67)c(C(=O)O)c5)nn4)[C@@H](O)[C@H](O)[C@H]3O)cc2)cc1 [substrate 3, 5-(((S)-1-(((1-(4-(((2R,3S,4S,5R,6S)-6-(4-(2-(4-((4-((E)-(2,5-dimethoxy-4-((E)-(4-nitrophenyl)diazenyl)phenyl)diazenyl)phenyl)(methyl)amino)butanamido)ethyl)phenoxy)-3,4,5-trihydroxytetrahydro-2H-pyran-2-yl)methoxy)butyl)-1H-1,2,3-triazol-4-yl)methyl)amino)-6-(dimethylamino)-1-oxohexan-2-yl)carbamoyl)-2-(6-(dimethylamino)-3-(dimethyliminio)-3H-xanthen-9-yl)benzoate]
second order rate constant relative to 9b [3]: more than 5 fold
